According to the NIST ThermoML archive (doi:10.1021/je060271a):
Values joined by “and” are separate entries in the source; they are usually repeats but may differ in a detail not shown here. Equal entries are not always repeated. Numbers after ± are expanded uncertainties.

Settings: Liquid, Vibrating tube method

CCCCCCC(=O)OCC(COC(=O)CCCCCC)(COC(=O)CCCCCC)COC(=O)CCCCCC [pentaerythritol tetraheptanoate]
Settings	mass density
343.15 K, 32525 kPa	962.8 ± 1.2 kg/m3
343.15 K, 32544 kPa	962.9 ± 1.2 kg/m3
343.15 K, 32576 kPa	962.8 ± 1.2 kg/m3
343.15 K, 32608 kPa	962.8 ± 1.2 kg/m3
343.15 K, 32640 kPa	962.9 ± 1.2 kg/m3
343.15 K, 32679 kPa	962.8 ± 1.6 kg/m3
343.15 K, 32711 kPa	963 ± 1.2 kg/m3
343.15 K, 32736 kPa	963 ± 1.2 kg/m3
343.15 K, 32750 kPa	963.1 ± 1.2 kg/m3
343.15 K, 32774 kPa	963.1 ± 1.2 kg/m3
343.15 K, 32782 kPa	963 ± 1.2 kg/m3
343.15 K, 32814 kPa	963.1 ± 1.2 kg/m3
343.15 K, 32815 kPa	963 ± 1.2 kg/m3
343.15 K, 32853 kPa	963.1 ± 1.2 kg/m3
343.15 K, 32854 kPa	962.9 ± 1.2 kg/m3
343.15 K, 32887 kPa	962.9 ± 1.2 kg/m3
343.15 K, 32900 kPa	963.1 ± 1.2 kg/m3
343.15 K, 32920 kPa	963.1 ± 1.2 kg/m3
343.15 K, 32940 kPa	963 ± 1.2 kg/m3
343.15 K, 32953 kPa	963.1 ± 1.2 kg/m3
343.15 K, 32980 kPa	963 ± 1.2 kg/m3
343.15 K, 32993 kPa	963.1 ± 1.2 kg/m3
343.15 K, 33027 kPa	963.1 ± 1.2 kg/m3
343.15 K, 33028 kPa	963.2 ± 1.2 kg/m3
343.15 K, 33060 kPa	963.1 ± 1.2 kg/m3
343.15 K, 33068 kPa	963.1 ± 1.2 kg/m3
343.15 K, 33100 kPa	963.1 ± 1.2 kg/m3
343.15 K, 33109 kPa	963.1 ± 1.2 kg/m3
343.15 K, 33134 kPa	963.3 ± 1.2 kg/m3
343.15 K, 33174 kPa	963.3 ± 1.2 kg/m3
343.15 K, 33208 kPa	963.4 ± 1.2 kg/m3
343.15 K, 33242 kPa	963.2 ± 1.2 kg/m3
343.15 K, 33276 kPa	963.3 ± 1.2 kg/m3
343.15 K, 33317 kPa	963.3 ± 1.2 kg/m3
343.15 K, 33351 kPa	963.3 ± 1.2 kg/m3
343.15 K, 33385 kPa	963.4 ± 1.2 kg/m3
343.15 K, 33425 kPa	963.3 ± 1.2 kg/m3
343.15 K, 33459 kPa	963.4 ± 1.2 kg/m3
343.15 K, 33500 kPa	963.3 ± 1.2 kg/m3
343.15 K, 33535 kPa	963.4 ± 1.2 kg/m3
343.15 K, 33569 kPa	963.4 ± 1.2 kg/m3
343.15 K, 33604 kPa	963.4 ± 1.2 kg/m3
343.15 K, 33645 kPa	963.5 ± 1.2 kg/m3
343.15 K, 33679 kPa	963.4 ± 1.2 kg/m3
343.15 K, 33714 kPa	963.4 ± 1.2 kg/m3
343.15 K, 33721 kPa	963.6 ± 1.2 kg/m3
343.15 K, 33756 kPa	963.6 ± 1.2 kg/m3
343.15 K, 33772 kPa	963.8 ± 1.2 kg/m3
343.15 K, 33791 kPa	963.6 ± 1.2 kg/m3
343.15 K, 33816 kPa	963.7 ± 1.2 kg/m3
343.15 K, 33833 kPa	963.5 ± 1.2 kg/m3
343.15 K, 33862 kPa	963.6 ± 1.2 kg/m3
343.15 K, 33869 kPa	963.6 ± 1.2 kg/m3
343.15 K, 33906 kPa	963.5 ± 1.2 kg/m3
343.15 K, 33942 kPa	963.6 ± 1.2 kg/m3
343.15 K, 33949 kPa	963.7 ± 1.2 kg/m3
343.15 K, 33986 kPa	963.7 ± 1.2 kg/m3
343.15 K, 34002 kPa	963.7 ± 1.2 kg/m3
343.15 K, 34024 kPa	963.7 ± 1.2 kg/m3
343.15 K, 34048 kPa	963.7 ± 1.2 kg/m3
343.15 K, 34062 kPa	963.7 ± 1.2 kg/m3
343.15 K, 34095 kPa	963.8 ± 1.2 kg/m3
343.15 K, 34108 kPa	963.8 ± 1.2 kg/m3
343.15 K, 34139 kPa	963.8 ± 1.2 kg/m3
343.15 K, 34152 kPa	963.8 ± 1.2 kg/m3
343.15 K, 34166 kPa	963.8 ± 1.2 kg/m3
343.15 K, 34187 kPa	963.8 ± 1.2 kg/m3
343.15 K, 34202 kPa	963.9 ± 1.2 kg/m3
343.15 K, 34208 kPa	964 ± 1.2 kg/m3
343.15 K, 34229 kPa	963.8 ± 1.2 kg/m3
343.15 K, 34254 kPa	963.7 ± 1.2 kg/m3
343.15 K, 34259 kPa	963.9 ± 1.2 kg/m3
343.15 K, 34276 kPa	963.7 ± 1.2 kg/m3
343.15 K, 34290 kPa	964 ± 1.2 kg/m3
343.15 K, 34314 kPa	964 ± 1.2 kg/m3
343.15 K, 34315 kPa	963.9 ± 1.2 kg/m3
343.15 K, 34342 kPa	964 ± 1.2 kg/m3
343.15 K, 34365 kPa	963.9 ± 1.2 kg/m3 and 964.1 ± 1.2 kg/m3
343.15 K, 34390 kPa	964 ± 1.2 kg/m3
343.15 K, 34409 kPa	963.8 ± 1.2 kg/m3
343.15 K, 34414 kPa	964.1 ± 1.2 kg/m3
343.15 K, 34444 kPa	964 ± 1.2 kg/m3
343.15 K, 34469 kPa	963.9 ± 1.2 kg/m3
343.15 K, 34483 kPa	964 ± 1.2 kg/m3
343.15 K, 34500 kPa	964 ± 1.2 kg/m3
343.15 K, 34527 kPa	964.1 ± 1.2 kg/m3
343.15 K, 34534 kPa	964.1 ± 1.2 kg/m3
343.15 K, 34556 kPa	964 ± 1.2 kg/m3
343.15 K, 34566 kPa	964.1 ± 1.2 kg/m3
343.15 K, 34584 kPa	964.1 ± 1.2 kg/m3
343.15 K, 34616 kPa	964.2 ± 1.2 kg/m3
343.15 K, 34624 kPa	964.2 ± 1.2 kg/m3
343.15 K, 34625 kPa	964.2 ± 1.2 kg/m3
343.15 K, 34651 kPa	964.1 ± 1.2 kg/m3
343.15 K, 34654 kPa	964.2 ± 1.2 kg/m3
343.15 K, 34656 kPa	964.2 ± 1.2 kg/m3
343.15 K, 34659 kPa	964.1 ± 1.2 kg/m3
343.16 K, 100.2 kPa	940.6 ± 1.1 kg/m3
343.16 K, 100.5 kPa	940.7 ± 1.1 kg/m3 and 940.6 ± 1.1 kg/m3
343.16 K, 100.7 kPa	940.6 ± 1.1 kg/m3 and 940.7 ± 1.1 kg/m3
343.16 K, 101 kPa	940.7 ± 1.1 kg/m3
343.16 K, 101.7 kPa	940.6 ± 1.1 kg/m3
343.16 K, 103.8 kPa	940.6 ± 1.1 kg/m3
343.16 K, 104.7 kPa	940.6 ± 1.1 kg/m3
343.16 K, 160.8 kPa	940.8 ± 1.1 kg/m3
343.16 K, 221.5 kPa	940.6 ± 1.1 kg/m3
343.16 K, 300.9 kPa	940.7 ± 1.1 kg/m3
343.16 K, 1395.6 kPa	941.7 ± 1.1 kg/m3
343.16 K, 1419.9 kPa	941.7 ± 1.1 kg/m3
343.16 K, 4555 kPa	944.1 ± 1.2 kg/m3
343.16 K, 5039.3 kPa	944.4 ± 1.2 kg/m3
343.16 K, 13687 kPa	950.5 ± 1.2 kg/m3
